How the values were obtained:
PIK3CA = target: T1, PIK3CA (Homo sapiens, UniProt P42336); experiment: In vitro ELISA target engagement assay for PIK3CA in Jurkat cellular lysate (competition with PIK3CA Biotin Probe); format: binding; conditions: 1 hour at rt, then 500 nM PIK3CA Biotin Probe, read-out: Elisa Target Engagement Assay (TE50)
T1 construct: endogenous in cells; host or cells: Jurkat cell lysate
In short: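 Jurkat lysate from sonicated frozen cells was preincubated 1 h at rt with serially diluted compound up to 200 μM, then labelled 1 h at rt with PIK3CA biotin probe at 500 nM final. Probe-bound PIK3CA was captured on antibody-coated plates and detected with Neutravidin-HRP luminescence; TE50 derived from the dose response.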

[1] = test system: pAKT(S473) in FaDu cell line; experiment: In vitro Phospho-AKT(S473) HTRF analysis in FaDu cells; format: cell-based; conditions: Homo sapiens, 0.5 h; for IC50: FaDu cells, 30 minutes at 37° C.; for Emax: FaDu, read-out: FaDu pAKT Imax % control
Experimental: Example 5. In Vitro Phosgho-AKT(S473) Analysis
Functional activity of the compounds to inhibit pAKT were assessed in FaDu or H358 cell lines as indicated below.
• Complete Media • FBS, Corning catalog #35-010-CV • Anti-Anti, Gibco catalog #15240-062 • 96 well plate, Corning catalog #3610 • TrypLE, Gibco catalog #12604013 • Phospho-AKT(S473) HTRF kit, Cisbio catalog #64AKSPET
Cells were detached from the tissue culture flask with TrypLE. The cells were pelleted at 500×g for 5 min, TrypLe was removed and then resuspended in the necessary volume of media+1% FBS to give the appropriate cell density (17,500 cells/mL for FaDu; 20,000 cells/mL for H358). 100 μL of cell suspension/well was dispensed into the 96-well plate while keeping the outer wells of the plate free of cells and filled with PBS to prevent evaporation of interior wells. The plate was incubated at 37° C. and allowed to adhere overnight. The cells were treated with a dose response of compound and incubated at 37° C. for 30 minutes. The cells were then processed and pAKT(S473) levels were assessed following the specifications of the Cisbio HTRF kit.

T1 sequence (P42336 whole entry): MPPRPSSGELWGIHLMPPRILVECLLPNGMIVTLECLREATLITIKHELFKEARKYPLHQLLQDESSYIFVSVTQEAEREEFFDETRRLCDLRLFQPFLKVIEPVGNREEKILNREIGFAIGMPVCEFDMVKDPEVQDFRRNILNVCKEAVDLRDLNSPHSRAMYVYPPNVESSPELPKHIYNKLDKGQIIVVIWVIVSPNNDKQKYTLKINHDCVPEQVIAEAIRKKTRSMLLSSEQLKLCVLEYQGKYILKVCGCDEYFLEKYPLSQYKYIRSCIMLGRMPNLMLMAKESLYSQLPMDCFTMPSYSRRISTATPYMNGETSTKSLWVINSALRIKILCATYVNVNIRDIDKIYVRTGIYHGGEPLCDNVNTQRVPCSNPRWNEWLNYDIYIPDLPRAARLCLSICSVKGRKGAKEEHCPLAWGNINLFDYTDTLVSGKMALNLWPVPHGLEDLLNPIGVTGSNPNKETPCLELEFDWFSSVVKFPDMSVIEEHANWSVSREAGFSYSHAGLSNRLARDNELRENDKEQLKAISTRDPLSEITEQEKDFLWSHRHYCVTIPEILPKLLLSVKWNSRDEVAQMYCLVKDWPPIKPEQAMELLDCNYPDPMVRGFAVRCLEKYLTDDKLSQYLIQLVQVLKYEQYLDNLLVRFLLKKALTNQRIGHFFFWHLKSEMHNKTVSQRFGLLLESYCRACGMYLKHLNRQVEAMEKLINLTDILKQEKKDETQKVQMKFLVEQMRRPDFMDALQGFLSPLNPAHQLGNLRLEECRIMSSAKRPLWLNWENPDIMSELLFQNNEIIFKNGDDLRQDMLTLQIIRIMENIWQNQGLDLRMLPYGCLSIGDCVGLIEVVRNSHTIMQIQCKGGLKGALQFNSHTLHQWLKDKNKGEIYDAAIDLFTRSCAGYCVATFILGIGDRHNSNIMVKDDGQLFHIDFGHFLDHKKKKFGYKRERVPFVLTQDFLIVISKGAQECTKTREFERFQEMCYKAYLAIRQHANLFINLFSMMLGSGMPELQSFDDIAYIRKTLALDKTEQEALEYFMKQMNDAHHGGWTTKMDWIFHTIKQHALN
T1 sequence (P27986 whole entry partner): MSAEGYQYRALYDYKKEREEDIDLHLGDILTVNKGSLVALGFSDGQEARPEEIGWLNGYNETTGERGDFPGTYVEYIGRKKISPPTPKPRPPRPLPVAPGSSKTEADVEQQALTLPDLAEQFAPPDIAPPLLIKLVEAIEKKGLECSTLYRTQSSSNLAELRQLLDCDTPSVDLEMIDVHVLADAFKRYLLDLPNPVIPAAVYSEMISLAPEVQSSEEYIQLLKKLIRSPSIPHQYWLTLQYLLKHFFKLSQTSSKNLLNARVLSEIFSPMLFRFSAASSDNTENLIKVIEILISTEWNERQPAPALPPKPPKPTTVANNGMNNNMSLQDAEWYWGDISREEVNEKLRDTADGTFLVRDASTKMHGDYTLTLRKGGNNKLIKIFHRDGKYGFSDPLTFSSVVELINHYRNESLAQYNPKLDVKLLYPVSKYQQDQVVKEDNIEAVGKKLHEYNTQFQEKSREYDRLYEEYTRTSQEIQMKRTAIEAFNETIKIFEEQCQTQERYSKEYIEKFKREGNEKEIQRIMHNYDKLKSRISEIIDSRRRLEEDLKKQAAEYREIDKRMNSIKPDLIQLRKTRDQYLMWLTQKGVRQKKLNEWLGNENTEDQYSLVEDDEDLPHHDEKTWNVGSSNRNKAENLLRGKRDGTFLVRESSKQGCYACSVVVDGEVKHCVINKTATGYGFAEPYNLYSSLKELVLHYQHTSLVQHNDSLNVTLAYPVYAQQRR

Row | SMILES | IC50 (PIK3CA) [nM] | IC50 [1] [nM] | Emax [1] [%]
1 | C[C@H](/C=C\S(C)(=O)=O)NC(=O)C1(F)CCN(C(=O)[C@H]2CN(CC(F)F)C[C@H]2c2ccccc2Cl)CC1 [Compound 206, 1-((3R,4R)-4-(2-chlorophenyl)-1-(2,2-difluoroethyl)pyrrolidine-3-carbonyl)-4-fluoro-N-((R,Z)-4-(methylsulfonyl)but-3-en-2-yl)piperidine-4-carboxamide] | 800 | 718 | 106
2 | C[C@@H](/C=C\S(C)(=O)=O)NC(=O)C1(F)CCN(S(=O)(=O)c2cnc(C(F)(F)F)cc2-c2cccc(F)c2Cl)CC1 [Compound 210, (S,Z)-1-((4-(2-chloro-3-fluorophenyl)-6-(trifluoromethyl)pyridin-3-yl)sulfonyl)-4-fluoro-N-(4-(methylsulfonyl)but-3-en-2-yl)piperidine-4-carboxamide] | 110 | 214 | 
3 | C[C@H](/C=C/C(=O)N1CC(F)(F)C1)NC(=O)C1(F)CCN(S(=O)(=O)c2cnc(C(F)(F)F)cc2-c2ccccc2Cl)CC1 [Compound 213, (R,E)-1-((4-(2-chlorophenyl)-6-(trifluoromethyl)pyridin-3-yl)sulfonyl)-N-(5-(3,3-difluoroazetidin-1-yl)-5-oxopent-3-en-2-yl)-4-fluoropiperidine-4-carboxamide] | 230 | 291 | 90.8
4 | C[C@H](/C=C/C(=O)N1CC(F)C1)NC(=O)C1(F)CCN(S(=O)(=O)c2ccc(C(F)(F)F)cc2-c2ccccc2Cl)CC1 [Compound 216, (R,E)-1-((2′-chloro-5-(trifluoromethyl)-[1,1′-biphenyl]-2-yl)sulfonyl)-4-fluoro-N-(5-(3-fluoroazetidin-1-yl)-5-oxopent-3-en-2-yl)piperidine-4-carboxamide] | 550 | 688 | 108
5 | C[C@H](/C=C\S(C)(=O)=O)NC(=O)[C@@]1(F)CCCN(C(=O)c2ccc(Br)cc2-c2ccccc2Cl)CC1 [Compound 241, (R)-1-(5-bromo-2′-chloro-[1,1′-biphenyl]-2-carbonyl)-4-fluoro-N-((R,Z)-4-(methylsulfonyl)but-3-en-2-yl)azepane-4-carboxamide] | 62 | 281 | 95.3
6 | C[C@H](/C=C\S(C)(=O)=O)NC(=O)[C@@]1(F)CCCN(C(=O)c2ccc(C(F)(F)F)cc2-c2ccccc2Cl)CC1 [Compound 242, (R)-1-(2′-chloro-5-(trifluoromethyl)-[1,1′-biphenyl]-2-carbonyl)-4-fluoro-N-((R,Z)-4-(methylsulfonyl)but-3-en-2-yl)azepane-4-carboxamide] | 72 | 138 | 
7 | C[C@H](/C=C/C(=O)N1CC(F)(F)C1)NC(=O)[C@@]1(F)CCCN(C(=O)c2ccc(Br)cc2-c2ccccc2Cl)CC1 [Compound 243, (R)-1-(5-bromo-2′-chloro-[1,1′-biphenyl]-2-carbonyl)-N-((R,E)-5-(3,3-difluoroazetidin-1-yl)-5-oxopent-3-en-2-yl)-4-fluoroazepane-4-carboxamide] | 670 | 761 | 68.7
8 | C[C@H](/C=C/C(=O)N1CC(F)(F)C1)NC(=O)[C@@]1(F)CCCN(C(=O)c2ccc(C(F)(F)F)cc2-c2ccccc2Cl)CC1 [Compound 244, (R)-1-(2′-chloro-5-(trifluoromethyl)-[1,1′-biphenyl]-2-carbonyl)-N-((R,E)-5-(3,3-difluoroazetidin-1-yl)-5-oxopent-3-en-2-yl)-4-fluoroazepane-4-carboxamide] | 780 | 1200 | 76.3
9 | C[C@H](/C=C/C(=O)N1CC(F)(F)C1)NC(=O)[C@@]1(F)CCCN(C(=O)c2ccc(C(F)(F)F)cc2-c2c(F)cccc2Cl)CC1 [Compound 245, (4R)-1-(2′-chloro-6′-fluoro-5-(trifluoromethyl)-[1,1′-biphenyl]-2-carbonyl)-N-((R,E)-5-(3,3-difluoroazetidin-1-yl)-5-oxopent-3-en-2-yl)-4-fluoroazepane-4-carboxamide] | 620 | 922 | 86.2
10 | COC[C@@H](/C=C\S(C)(=O)=O)NC(=O)C1(F)CCN(S(=O)(=O)c2ccc(Br)cc2-c2ccccc2Cl)CC1 [Compound 246, (R,Z)-1-((5-bromo-2′-chloro-[1,1′-biphenyl]-2-yl)sulfonyl)-4-fluoro-N-(1-methoxy-4-(methylsulfonyl)but-3-en-2-yl)piperidine-4-carboxamide] | 42 | 163 | 
11 | COC[C@@H](/C=C\S(C)(=O)=O)NC(=O)C1(F)CCN(S(=O)(=O)c2ccc(OC)cc2-c2ccccc2Cl)CC1 [Compound 248, (R,Z)-1-((2′-chloro-5-methoxy-[1,1′-biphenyl]-2-yl)sulfonyl)-4-fluoro-N-(1-methoxy-4-(methylsulfonyl)but-3-en-2-yl)piperidine-4-carboxamide] | 170 | 557 | 
12 | CC(C)(/C=C/C(=O)N1CC(F)(F)C1)NC(=O)C1(F)CCN(S(=O)(=O)c2ccc(C(F)(F)F)cc2-c2ccccc2Cl)CC1 [Compound 249, (E)-1-((2′-chloro-5-(trifluoromethyl)-[1,1′-biphenyl]-2-yl)sulfonyl)-N-(5-(3,3-difluoroazetidin-1-yl)-2-methyl-5-oxopent-3-en-2-yl)-4-fluoropiperidine-4-carboxamide] | 620 | 1200 | 82.8
13 | C[C@H](/C=C\S(C)(=O)=O)NC(=O)[C@]1(F)CCN(S(=O)(=O)c2ccc(OC(F)(F)F)cc2-c2ccccc2Cl)[C@H](C)C1 [Compound 250, (2R,4S)-1-((2′-chloro-5-(trifluoromethoxy)-[1,1′-biphenyl]-2-yl)sulfonyl)-4-fluoro-2-methyl-N-((R,Z)-4-(methylsulfonyl)but-3-en-2-yl)piperidine-4-carboxamide] | 350 | 1640 | 96.8
14 | C[C@H](/C=C/C(=O)N1CC(F)(F)C1)NC(=O)[C@]1(F)CCN(S(=O)(=O)c2ccc(OC(F)F)cc2-c2ccccc2Cl)[C@H](C)C1 [Compound 251, (2R,4S)-1-((2′-chloro-5-(difluoromethoxy)-[1,1′-biphenyl]-2-yl)sulfonyl)-N-((R,E)-5-(3,3-difluoroazetidin-1-yl)-5-oxopent-3-en-2-yl)-4-fluoro-2-methylpiperidine-4-carboxamide] | 260 | 249 | 102
15 | C[C@H](/C=C/C(=O)N1CC(F)(F)C1)NC(=O)[C@]1(F)CCN(S(=O)(=O)c2ccc(C(F)F)cc2-c2ccccc2Cl)[C@H](C)C1 [Compound 253, (2R,4S)-1-((2′-chloro-5-(difluoromethyl)-[1,1′-biphenyl]-2-yl)sulfonyl)-N-((R,E)-5-(3,3-difluoroazetidin-1-yl)-5-oxopent-3-en-2-yl)-4-fluoro-2-methylpiperidine-4-carboxamide] | 160 | 267 | 77.2
16 | C[C@H](/C=C\S(C)(=O)=O)NC(=O)[C@@]1(F)CCCN(C(=O)[C@@]2(C)CN(CC(F)(F)F)C[C@H]2c2ccccc2Cl)CC1 [Compound 254, (R)-1-((3R,4R)-4-(2-chlorophenyl)-3-methyl-1-(2,2,2-trifluoroethyl)pyrrolidine-3-carbonyl)-4-fluoro-N-((R,Z)-4-(methylsulfonyl)but-3-en-2-yl)azepane-4-carboxamide] | 880 | 911 | 92.5

— patent US20250026721A1, “COMPOUNDS AND METHODS FOR MODULATING RAS-PI3K” (Vividion Therapeutics, Inc., priority 2023, published 2025)
